Values belong to the molecule of their own block, whether it stands above or below them.
Experiments:
[1] = system: ionotropic glutamate AMPA receptors; conditions: cited from earlier work
GALRs [2] = conditions: cited from earlier work
GALR1 [3] = assay: Zn2+ inhibition assay, NanoBiT; format: cell-based, human
GALR2 [4] = assay: Zn2+ inhibition assay, NanoBiT; format: cell-based, human; conditions: HEK-293T cells, pH 7.3
NMAR receptors = conditions: cited from earlier work
GALR1 V274G (human) = GALR1 V274G (human) (UniProt P47211)
GALR2 F271^7.32A (human) = GALR2 F271^7.32A (human) (UniProt O43603)
[5] = molecular target: GALR1 Q92^2.61 to alanine (human) (UniProt P47211)
GALR2 R184^5.35A (human) = GALR2 R184^5.35A (human) (UniProt O43603)
[6] = molecular target: GALR2 Q82^2.61 to alanine (human) (UniProt O43603)
[7] = molecular target: GALR1 F275 mutant (human) (UniProt P47211)
[8] = molecular target: GALR2 F264 mutant (human) (UniProt O43603)
GALRs [9] = conditions: cited from earlier work; remark: listed apart in the source
GALR2 [10] = assay: NanoBiT assay, GALR2-Gαs coupling; format: cell-based, human; conditions: E(-3) in Gαs substituted with the equivalent Gαq residue
GALR2 and its mutants = assay: NanoBiT mini-Gq recruitment assay; format: cell-based, human; conditions: mutations of conserved TM3/TM5/TM6 residues in GALR2
GALR2 or mutants = assay: IP1 accumulation assay; format: cell-based, human; conditions: HEK-293T cells, 1 h
GALR1 [11] = conditions: cited from earlier work
GALR3 [12] = conditions: mutation of equivalent residue F263 in GALR3; cited from earlier work
GALR1 and its mutants = assay: NanoBiT mini-Go recruitment assay; format: cell-based, human
GALR2 with ICL3 of GALR1 = assay: GALR2-Go coupling with ICL3 substitution; format: cell-based, human; conditions: ICL3 (214 to 225) of GALR2 replaced by GALR1 residues
GALR2 [13] = conditions: cited from earlier work
GALR2 [14] = assay: GALR2-Gq coupling of ICL2 and TM5 mutants; format: cell-based, human; conditions: L^5.65A mutation in GALR2
GALR1 or mutants = assay: cAMP inhibition assay; format: cell-based, human; conditions: CHO cells
GALR2 [15] = conditions: specific for GALR2 and GALR3; cited from earlier work
GALR3 [16] = conditions: specific for GALR2 and GALR3; cited from earlier work
[17] = S235^ICL3 and K237^ICL3 mutations in GALR1

Molecule: [Zn+2] [Zn^2+, ZnCl2]
effect on AMPA receptors [1]: inhibits
inhibition of galanin binding to the receptors (GALRs [2]): can inhibit galanin binding
character of Zn2+ inhibition (GALR1 [3]; 1 μM galanin, wild-type GALR1, HEK-293T cells, pH 7.3): saturable or has a “ceiling” level
effect of mutation on zinc inhibition (GALR1 [3]; GALR1 H112^3.29A, 1 μM galanin, HEK-293T cells): little influence
effect of mutation on zinc inhibition (GALR1 [3]; GALR1 H263^6.51F, 1 μM galanin, HEK-293T cells): little influence
effect of mutation on zinc inhibition (GALR1 [3]; GALR1 H264^6.52F, 1 μM galanin, HEK-293T cells): little influence
effect on galanin concentration-response curve (GALR1 [3]; H267^6.55A mutant of GALR1, HEK-293T cells): little effect
allosteric modulation of GALR1 (GALR1 [3]; conclusion from NanoBiT assay, listed as zinc ion): negative allosteric regulator
effect on galanin-induced GALR2 activation (GALR2 [4]; below millimolar Zn2+): little effect
Zn2+ concentration at which galanin activation of GALR2 is diminished (GALR2 [4]; galanin-induced, above the physiological concentration): millimolar range
effect on NMDA receptors (NMAR receptors): inhibits

Molecule: N-terminal region of galanin ([1]–[16]): N-terminal region of galanin
binding affinity for the receptors relative to full-length galanin (GALRs [2]): comparable to the full-length galanin

fold reduction of agonist potency, cAMP inhibition assay (GALR1 V274G (human)): 370 fold
fold reduction of galanin potency, IP1 accumulation assay (GALR2 F271^7.32A (human)): 100 fold
fold reduction of galanin potency, cAMP inhibition assay [5]: 100 fold
fold reduction of galanin potency, IP1 accumulation assay (GALR2 R184^5.35A (human)): 10 fold
fold reduction of galanin potency, IP1 accumulation assay [6]: 100 fold
fold reduction of galanin potency, cAMP inhibition assay [7]: 100 fold
fold reduction of galanin potency, IP1 accumulation assay [8]: 100 fold
Molecule: galanin peptide 1 through 30

Molecule: galanin-like peptide (GALP): endogenous galanin-like peptide (APAHRGRGGWTLNSAGYLLGPVLHLPQMGDQDGKRETALEILDLWKAIDGLPYSHPPQPS; Galanin-like peptide; UniProt Q9UBC7 25-84, looked up)
activation of GALRs (GALRs [9]): activate GALRs

Molecule: galanin: 29- or 30-amino acid peptide, endogenous ligand; galanin peptide 1 through 30 (MedChemExpress)
coupling efficiency between GALR2 and Gs (GALR2 [10]): significantly increased
recruitment of Gq (GALR2 and its mutants): impair
reduction of galanin potency vs wild type (GALR2 or mutants; Q82^2.61 to alanine mutant of GALR2): ~100 fold
effect of mutation on galanin potency (GALR2 or mutants; Q263A mutant of GALR2 (ECL3)): little effect
reduction of galanin potency vs wild type (GALR2 or mutants; R184^5.35A mutant of GALR2): about 10 fold
reduction of galanin potency vs wild type (GALR2 or mutants; mutation of F264 (ECL3) in GALR2): ~100 fold
binding affinity for GALRs (GALRs [2]): subnanomolar range
reduction of galanin binding affinity (GALR1 [11]; H267^6.55 mutation of GALR1): more than 100 fold
galanin binding affinity of mutants (GALR1 [11]; mutations of F115 and H264 of GALR1): significantly reduce
galanin binding to mutant (GALR3 [12]): completely abolishes
effect of mutation on galanin maximum response (GALR1 and its mutants; [17]): dramatically reduced
effect of mutation on galanin potency (GALR1 and its mutants; [17]): modest effect
recruitment of Gi (GALR1 and its mutants; mutations of conserved TM3/TM5/TM6 residues in GALR1): impair
ability of GALR2 to bind Go (GALR2 with ICL3 of GALR1): acquired the ability to bind Go
galanin binding to mutant (GALR2 [13]; mutation of F264 in GALR2): completely abolishes
galanin binding affinity of mutants (GALR2 [13]; mutations of F106, H252, H253, I256, W260, and F261 of GALR2): significantly reduce
effect of mutation on galanin potency (GALR2 [14]): significantly decreased
reduction of agonist (galanin) potency vs wild type (GALR1 or mutants; V274G mutant of GALR1 (ECL3), 1 μM forskolin): about 370 fold
effect of mutation on galanin potency (GALR1 or mutants; W188^ECL2 mutant of GALR1, compared with H176^ECL2 mutant of GALR2): distinct effect
reduction of galanin potency vs wild type (GALR1 or mutants; mutation of F275 (ECL3) in GALR1, 1 μM forskolin): ~100 fold

B1: spexin: endogenous peptide spexin has A7M and G8L mutations in galanin (peptide, UniProt Q9BT56 27-116, looked up)
Spexin: APQRLLERRNWTPQAMLYLKGAQGRRFISDQSRRKDLSDRPLPERRSPNPQLLTIPEAATILLASLQKSPEDEEKNFDQTRFLEDSLLNW
modifications: Spexin
activation of GALR2 (GALR2 [15]): specifically activates GALR2 and GALR3
activation of GALR3 (GALR3 [16]): specifically activates GALR2 and GALR3
activation of GALRs (GALRs [9]): activate GALRs
